Results as given in US20030187261A1, “Purine derivatives, process for their preparation and use thereof” (priority 2000, published 2003).
Each block holds one compound with its values, some of them ahead of it.

What was measured:
CDC2 = molecular target: T1, CDC2 (Homo sapiens, UniProt P06493); assay: p34cdc2 (CDC2) kinase inhibition assay, histone H1 substrate; assay type: biochemical
T1 construct: made in house; host or cells: Sf9 insect cells, baculovirus co-infection
Method: Cyclin-dependent kinases (p34^cdc2, p33^cdk2, p33^cdk4 and cyclins (cyclin B, E and DI) are produced in Sf9 insect cells coinfected with appropriate baculoviral constructs. The cells are harvested 68-72 hrs post infection in lysis buffer for 30 min on ice and the soluble fraction is recovered by centrifugation at 14.000 g for 10 min. The protein extract is stored at −80° C.
To carry out experiments on kinetics under linear conditions, the final point test system for kinase activity measurement is used. The kinase is added to the reaction mixture in such a way that linear activity is obtained with respect to the concentration of enzyme and with respect to time.
Inhibition of p33^cdk4 kinase is determined with Rb-GST (0.2 mg/ml) as the substrate. Kinase activity is determined at 30° C. in kinase buffer.
Tested compounds are usually dissolved to 100 mM solutions in DMSO, the final concentration of DMSO in reaction mixture never exceeds 1%. The controls contain suitable dilutions of DMSO. After 10 min, the addition of 3×SDS sample buffer stops the incubations. […] The measurement of kinase activity is done using digital image analysis. The kinase activity is expressed as a percentage of maximum activity, the apparent inhibition constants are determined by graphic analysis. Kinase buffer: 50 mM Hepes pH 7.4, 10 mM MgCl21 5 mM EGTA, 10 mM 2-glycerolphosphate,

IκB-α = IκB-α kinase-inhibitory activity; assay type: biochemical
From the text: Modification of 2,6,9-trisubstituted purines by a catechol-like substituent at R6 leads to an increase in cdk inhibitory activity of the tested compounds.

[1] = tested on: T-lymphoblastic leukemia cell line CEM; assay: MTT cytotoxicity assay, CEM; assay type: cell-based, human; conditions: 72 hours (TCS50 in the method)
From the text: (§1) One of the parameters used as the basis for colorimetric assays is the metabolic activity of viable cells. For example, a microtiter assay, which uses the tetrazolium salt MTT, is now widely used to quantitate cell proliferation and cytotoxicity. For instance, this assay is used in drug screening programs and in chemosensitivity testing. Because only metabolically active cells cleave tetrazolium salts, these assays detect viable cells exclusively. In the case of MTT assay, yellow soluble tetrazolium salt is reduced to coloured water-insoluble formazan salt. After it is solubilized, the formazan formed can easily and rapidly be quantified in a conventional ELISA plate reader at 570 nm (maximum absorbance). The quantity of reduced formazan corresponds to number of vital cells in the culture. Human T-lymphoblastic leukemia cell line CEM; promyelocytic HL-60 and monocytic U937 leukemias; breast carcinoma cell lines MCF-7, BT549, MDA-MB-231; glioblastoma U87MG cells; cervical carcinoma cells HELA; sarcoma cells U20S and Saos2; hepatocellular carcinoma HepG2; mouse immortalized bone marrow macrophages B2.4 and B10A.4; P388D1 and L1210 leukemia; B16 and B16F10 melanomas were used for routine screening of the compounds according to the invention. The cells were maintained in Nunc/Corning 80 cm^2 plastic tissue culture flasks and cultured in cell culture medium (DMEM with 5 g/l glucose, 2 mM glutamine, 100 U/ml penicillin, 100 μg/ml streptomycin, 10% fetal calf serum and sodium bicarbonate).
(§2) The cell suspensions that were prepared and diluted according to the particular cell type and the, expected target cell density (2500-30000 cells per well based on cell growth characteristics) were added by pipette (80 μl) into 96-well microtiter plates. Inoculates were allowed a pre-incubation period of 24 hours at 37° C. and 5% CO2 for stabilisation. Four-fold dilutions of the intended test concentration were added at time zero in 20 μl aliquots to the microtiter plate wells. Usually, test compound was evaluated at six 4-fold dilutions. In routine testing, the highest well concentration was 266.7 μM, but it can be the matter of change dependent on the agent. All drug concentrations were examined in duplicates. Incubations of cells with the test compounds lasted for 72 hours at 37° C., in 5% CO2 atmosphere and 100% humidity. At the end of incubation period, the cells were assayed by using the MTT. Ten microliters of the MTT stock solution were pipetted into each well and incubated further for 1-4 hours. After this incubation period, formazan was solubilized by addition of 100 μl/well of 10% SDS in water (pH=5.5) followed by further incubation at 37° C. overnight. The optical density (OD) was measured at 540 nm with the Labsystem iEMS Reader MF (UK). The tumour cell survival (TCS) was calculated using the following equation: TCS=(ODdrug exposed well/mean ODcontrol wells)×100%. The TCS50 value, the drug concentration lethal to 50% of the tumour cells, was calculated from the obtained dose response curves.
(§3) The cytoxicity of novel compounds was tested on panel of cell lines of different histogenetic and species origin (Table 7). Equal activities were found in all tumour cell lines tested. […] Importantly, this observation distinguishes the purine derivatives of the invention from flavopiridol and related compounds, as their biological activity is dependent on p53 status.

B16 melanoma = assay: MTT cytotoxicity assay, B16; assay type: cell-based, mouse; conditions: 72 hours (TCS50 in the method)
From the text: as §1, §2, §3

normal human lymphocytes = assay: concanavalin A induced lymphocyte proliferation, [3H]-TdR incorporation; assay type: cell-based; conditions: 72 hours, read-out: ED50 (the source's name)
Method: Human heparinized peripheral blood was obtained from healthy volunteers by cubital vein punction. The blood was diluted in PBS (1:3) and mononuclear cells were separated by centrifugation in Ficoll-Hypaque density gradient (Pharmacia, 1.077 g/ml) at 2200 rpm for 30 minutes. Following centrifugation, lymphocytes were washed in PBS and resuspended in cell culture medium (RMPI 1640, 2 mM glutamine, 100 U/ml penicillin, 100 μg/ml streptomycin, 10% fetal calf serum and sodium bicarbonate).
The cells were diluted at target density of 1100000 cells/ml and were added by pipette (180 μl) into 96/well microtiter plates. Four-fold dilutions of the intended test concentration were added at time zero in 20 μl aliquots to the microtiter plate wells. Usually, test compound was evaluated at six 4-fold dilutions. In routine testing, the highest well concentration was 266.7 μM. All drug concentrations were examined in duplicates. All wells with exception of unstimulated controls were activated with 50 μl of concanavalin A (25 μg/ml). Incubations of cells with test compounds lasted for 72 hours at 37° C., in 5% CO2 atmosphere and 100% humidity. At the end of incubation period, the cells were assayed by using the [^3H]-TdR:
Cell cultures were incubated with […] (20 μl of stock solution 500 μCi/ml) per well for 6 hours at 37° C. and 5% CO2. The automated cell harvester was used to lyse cells in water and adsorb the DNA onto glass-fiber filters in the format of microtiter plate. The DNA incorporated [^3H]-TdR was retained on the filter while unincorporated material passes through. The filters were dried at room temperature overnight, sealed into a sample bag with 10-12 ml of scintillant. The amount of [^3H]-TdR present in each filter (in cpm) was determined by scintillation counting in a Betaplate liquid scintillation counter. The effective dose of immunosuppressant (ED) was calculated using the following equation: ED=(cpmdrug exposed well/mean cpmcontrol wells)×100%. The EDs50 value, the drug concentration inhibiting proliferation of 50% of lymphocytes, was calculated from the obtained dose response curves.
To evaluate immunosuppressive activity of substituted adenines, their ability to inhibit polyclonal mitogen induced proliferation of normal human lymphocytes was analyzed (Table 8). […] Effective immunosuppressive dose of new derivatives under in vitro conditions was close to 1-20 μM.

[2] = tested on: adult bone marrow CD34+CD38- cells; assay: pre-CFU assay; assay type: cell-based, human; conditions: Homo sapiens, 336 h; 14 day liquid culture, total clonogenic output after secondary methylcellulose culture
From the text: […]. Cells with low-to-medium forward and low side scatter, highly positive green (CD34) fluorescence, and an orange (CD38) fluorescence signal lower than the mean fluorescence of cells labeled with an irrelevant isotype-matched control antibody+2 standard deviations were retained as CD34^+CD38^− cells and used in pre-CFU assays.
Pre-CFU assays were initiated by performing liquid cultures of CD34^+CD38^− cells in duplicate in 96-well flat-bottomed plates in IMDM/10% FCS, 1% bovine serum albumin (BSA), 100 U/ml IL-1, 200 U/ml IL-6, 30 U/ml IL-3 and 100 ng/ml stem cell factor (SCF). Pre-CFU cultures were initiated with 500 CD34^+CD38^− cells/well (200 μl). After 14 days of culture at 37° C. in 7.5% O2 and 5% CO2 in a fully humidified incubator, the number of cells in each well was counted. Subsequently, the cells were harvested, washed three times in IMDM/10% FCS, and plated in duplicate at 500 cells/well (1000 μl) in secondary methylcellulose CFU cultures as described for CFU assays.
Pre-CFU were cultured starting from adult bone marrow CD34^+CD38^− cells, that had been isolated using the FCM cell sorter. Novel compounds were added at different concentrations to the primary 14 day liquid culture. IC50 was calculated from dose-response curves from total clonogenic output after secondary methylcellulose culture (Table 5).

[3] = tested on: CD34+ hematopoietic progenitors (HPC) from adult bone marrow; assay: myeloid colony-forming unit (CFU) assay; assay type: cell-based, human
[4] = tested on: myeloid leukemia KG1 cell line; assay: cell growth of KG1 cell line, flow cytometric cell count
[5] = tested on: T-lymphocyte leukemia Molt3 cell line; assay: cell growth of Molt3 cell line, flow cytometric cell count; assay type: cell-based, human; conditions: Homo sapiens, MOLT-3; 96 hours of culture
Method: Cell lines: Human leukemic cell lines were obtained from the American Type Culture Collection (ATCC, Rockville, Md., USA). They were cultured in Iscove's Modified Dulbecco's Medium (IMDM) supplemented with 10% heat inactivated fetal calf serum (FCS), 200 U/ml penicillin, 200 μg/ml streptomycin and 1 μg/ml amphotericin B. Cells were cultured in a 5% CO2-95% air fully humidified incubator. For effects on clonogenic output, 1000 cells/well were plated in duplicate in methylcellulose (0.9%), supplemented with 20% FCS and cultured for 14 days.
(§4) Cells were plated at 10000 per well in 200 μl IMDM medium and incubated with 0-50 μM of the compounds of the invention (Table 5), by addition of the drugs directly to the culture medium and incubated at 37° C. for 96 hours. Absolute cell number was determined by addition of a known concentration of Fluoresbrite microspheres (FITC) (Polysciences, Inc.). The absolute number of cells per well was calculated as: {(total number of beads added per well)/(number of beads measured)}×(number of measured cells in the gate of interest). All analyses were performed with a FACScan (BD), using CELLQuest software (Becton Dickinson).
The response of the myeloid leukemia KG1 and T-lymphocyte leukemia Molt3 cell lines to the cytostatic effect of the novel compounds was determined using the above-mentioned standardized bead suspension that was used to determine the absolute cell number by flow cytometric (FCM) measurement. Cells were grown in the presence of increasing concentrations of the compounds of the invention.

[6] = tested on: PHA-stimulated lymphocytes (PBMC); assay: cell number of PHA-stimulated lymphocytes (PBMC), flow cytometry; assay type: cell-based, human; conditions: Homo sapiens, Lymphocyte; 96 hours, in the presence of IL-2; read-out: Lymphocytes IC50
Method: Human peripheral blood mononuclear cells were isolated by density gradient (Ficoll-Hypaque) (LSM, ICN Biomedicals Inc.). PBMC were stimulated with 5 μg/ml phytohemaglutinin A (PHA) (Sigma) during 24-48 hours in IMDM supplemented with 10% FCS (IMDM/10% FCS) at 37° C. After washing off the PHA, PBMC were incubated with interleukin-2 (IL-2) (10 U/ml) (Genzyme).
as §4
The novel compounds were tested for cytotoxicity on PHA-stimulated lymphocytes (PBMC), as one of the normal counterparts of the cell lines. Cells were grown for 96 hours in the presence of IL-2 and different concentrations of the novel compounds and cell number was counted on the flow cytometer.

β-adrenergic receptors = assay: isoproterenol-induced intracellular cAMP synthesis in rat C6 glioma; assay type: cell-based; conditions: cAMP induced by 5 μM (−) isoproterenol, 30 min; for Effect: rat C6 glioma; for IC50: read-out: I50
Method: Rat C6 glioma (ATCC N° CCL107) was cultivated in monolayer in serum-free chemically defined medium containing Ham's F10/minimal essential medium (1:1 vol/vol), 2 mM L-glutamine, 1% (vol/vol) minimal essential medium vitamins (100×), 1% (vol/vol) minimal essential medium nonessential amino acids (100×), 100 U/ml penicillin, 100 μg/ml streptomycin and 30 nM sodium selenite. Incubation was at 37° C. in a humidified atmosphere. Assays were performed in the logaritmic growth phase at a density of 2.5×10^5 cells/cm^2. Intracellular cAMP synthesis was induced by addition of 5 μM (−) isoproterenol. After 30 min incubation at 37° C. the medium was removed and the cellular amount of cAMP determined using the cAMP-enzyme immunoassay kit of Amersham. The IC50 is determined from a dose-response curve in duplicate. The effect of seven purine-analogs was measured after simultaneous addition with isoproterenol.
As P2Y1-like and A2 purinergic receptors, negatively and positively coupled to adenylate cyclase respectively, are present on rat C6 glioma the modulation of the synthesis of cAMP may be due to inhibition of the activation of β-adrenergic receptors by isoproterenol or to activation of purinergic receptors.

HIV-2 = assay: anti-HIV-2 activity in CEM cells; assay type: cell-based
Method: The infected cell cultures were incubated at 37° C. for 5 days in a humidified CO2 incubator. The cytopathicity of the virus was examined by determination of MT-4 cell viability by trypan blue dye staining.

T1 sequence (P06493 whole entry, species assumed): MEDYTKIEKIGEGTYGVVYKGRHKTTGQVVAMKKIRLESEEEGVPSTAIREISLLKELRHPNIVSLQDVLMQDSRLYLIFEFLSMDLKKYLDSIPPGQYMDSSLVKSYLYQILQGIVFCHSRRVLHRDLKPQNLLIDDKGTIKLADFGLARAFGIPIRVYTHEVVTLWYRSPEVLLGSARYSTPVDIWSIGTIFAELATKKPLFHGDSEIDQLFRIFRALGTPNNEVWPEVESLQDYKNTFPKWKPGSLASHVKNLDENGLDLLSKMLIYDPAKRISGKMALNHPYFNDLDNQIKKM
T1 sequence (P14635 whole entry partner, species assumed): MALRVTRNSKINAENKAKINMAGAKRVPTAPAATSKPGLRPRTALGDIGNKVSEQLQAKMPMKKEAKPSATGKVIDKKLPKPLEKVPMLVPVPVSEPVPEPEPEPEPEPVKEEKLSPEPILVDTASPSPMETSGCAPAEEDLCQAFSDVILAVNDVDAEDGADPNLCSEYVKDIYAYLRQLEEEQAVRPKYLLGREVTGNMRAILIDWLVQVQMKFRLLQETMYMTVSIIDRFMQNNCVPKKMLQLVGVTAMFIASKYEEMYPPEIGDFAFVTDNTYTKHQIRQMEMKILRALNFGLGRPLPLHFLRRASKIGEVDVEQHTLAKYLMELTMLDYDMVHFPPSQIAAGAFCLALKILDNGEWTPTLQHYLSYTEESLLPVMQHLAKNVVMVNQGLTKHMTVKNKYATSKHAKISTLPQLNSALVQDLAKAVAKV

SMILES: CC(C)[C@H](CO)Nc1nc(NCc2ccc(O)c(O)c2)c2ncn(C(C)C)c2n1
IC50 (CDC2; Table 3, unit nM): 250 nM
IC50 (IκB-α; Table 3, unit nM): 320 nM

SMILES: CC(C)[C@H](CO)Nc1nc(N(C)CCc2ccc(O)c(O)c2)c2ncn(C(C)C)c2n1
IC50 [1]: 8 µM
IC50 (B16 melanoma): 9 µM
IC50 (CDC2; Table 3, unit nM): 390 nM
IC50 (IκB-α; Table 3, unit nM): 460 nM
EC50 (normal human lymphocytes): 0.54 µM

SMILES: CC(C)[C@H](CO)Nc1nc(NC(CO)c2ccccc2)c2ncn(C(C)C)c2n1 (some centres unmarked)
IC50 (CDC2; Table 3, unit nM): 540 nM
IC50 (IκB-α; Table 3, unit nM): 670 nM

SMILES: Cn1cnc2c(NCc3ccc(O)c(O)c3)nc(NCCO)nc21
IC50 (CDC2; Table 3): 4200 nM
IC50 (IκB-α; Table 3): 10800 nM

SMILES: CC[C@H](CO)Nc1nc(NCc2ccc(O)c(O)c2)c2ncn(C(C)C)c2n1
IC50 [1]: 8 µM
IC50 (B16 melanoma): 9 µM
IC50 (IκB-α; Table 3): 1250 nM

SMILES: CC[C@H](CO)Nc1nc(NC(CO)c2ccccc2)c2ncn(C(C)C)c2n1 (some centres unmarked)
IC50 [1]: 15 µM
IC50 (B16 melanoma): 13.5 µM
IC50 (IκB-α; Table 3): 2150 nM
EC50 (normal human lymphocytes): 12 µM

SMILES: Cn1cnc2c(NC(CO)c3ccccc3)nc(NCCO)nc21 (racemic)
IC50 (CDC2; Table 3): 5600 nM
IC50 (IκB-α; Table 3): 13700 nM

SMILES: Nc1nc(NCc2ccccc2)c2ncn(CCOCP(=O)(O)O)c2n1 [PME-derivatives: Benzylamino, reference compound]
HIV-2 CEM IC50 (HIV-2): >20 µg/mL

The next lines start with results.

IC50 [2]: 20 µM
IC50 ([3]; Homo sapiens, 336 h, 14 days, methylcellulose, total colony output): 37 µM
IC50 (CDC2; Table 5, CDC2 activity in cell free system): 21000 nM
IC50 ([4]; Homo sapiens, KG-1, 96 h, read-out: KGI IC50): 16 ± 1.7 µM
IC50 [5]: 19.3 ± 2.3 µM
Effect (β-adrenergic receptors): inhibition
IC50 (β-adrenergic receptors): 45 ± 5 µM
SMILES: CC(C)n1cnc2c(NCc3ccccc3)nc(NCCCN)nc21 [P12, 2-(3-aminopropylamino)-6-benzylamino-9-isopropylpurine]
output of the different types of myeloid colonies (CFU-E, CFU-G and CFU-M) ([3]; scored differentially): significantly lower colony output
cell number after 6 hours of exposure, wash and 7 days in drug-free medium ([4]; KG1, compared to control without novel compounds): (some) recovery of cell number
CC50 [6]: 8 ± 1.2 µM

Effect (β-adrenergic receptors): inhibition
IC50 (β-adrenergic receptors): 45 ± 5 µM
SMILES: CC(C)C(CO)Nc1nc(NCc2ccccc2)c2ncn(C(C)C)c2n1 (centres unmarked) [P30]

Effect (β-adrenergic receptors): inactive
SMILES: CC[C@@H](CO)Nc1nc(N[C@@H](CO)c2ccccc2)c2ncn(C(C)C)c2n1 [P38]

Effect (β-adrenergic receptors): inactive
SMILES: CC(O)CNc1nc(NC(CO)c2ccccc2)c2ncn(C(C)C)c2n1 (centres unmarked) [P39]
